Source: patent US9340559B2, “Proteasome inhibitor delanzomib for use in the treatment of lupus” (Cephalon, Inc., priority 2011, dated 2016)

Tests used:
Assay type in all cases: in vivo, mouse
MRL/lpr mice [1] = assay: Splenomegaly (spleen mass), MRL/lpr mice
Method: FIG. 5 depicts splenomegaly for MRL/lpr mice across treatment groups for the study duration. MRL/lpr mice were treated as outlined in the legend. The spleen masses for all mice that survived until the end of the experiment are graphed. Each symbol represents the spleen weight for one mouse at 25 weeks of age.
Mice are tracked on an individual basis.
Vehicle alone is provided orally twice weekly (p.o.). Both proteasome inhibitors are suspended in the vehicle solution. […] In addition, urine proteinuria is determined for all animals.
Vehicle was 3% DMSO/10% Solutol/87% PBS.

MRL/lpr mice [2] = assay: Renal histopathology scoring (kidney IC-GN), MRL/lpr mice
Method: (§1) For histological analyses, the left kidney from each animal is removed and fixed in 10% buffered neutral 10% formalin (EMD) for 48 hours on an orbital rocker at 25° C., then washed overnight with running dH2O and stored in 70% ethanol at 4° C. until ready to be processed. Kidney stains used for histological analyses included hematoxylin and eosin (H&E), Periodic Acid Schiff (PAS) and Trichrome stains (Wistar Institute, Philadelphia, Pa.). All 3 stained sections are used by the pathologist for scoring purposes. All histological scoring is performed blinded and by an independent board certified veterinary medical pathologist (Julie Engiles, VMD, DACVP). Multiple stains are used to determine score values. Images in FIG. 17 show worst affected area of section selected blindly by the pathologist.
(§2) Kidney IC-GN Scoring Method (Smith, Dong et al. 2007):
(§3) 1. Glomerular cellularity—Score 1-5: Null, low, moderate, high, severe
(§4) 2. Glomerular necrosis—Score 1-5: Null, low, moderate, high, severe
(§5) 3. Glomerulosclerosis—Score 1-5: Null, low, moderate, high, severe
(§6) 4. Interstitial infiltration—Score 1-5: Null, low, moderate, high, severe
(§7) 5. Tubular atrophy—Score 1-5: Null, low, moderate, high, severe
(§8) 6. Interstitial fibrosis—Score 1-5: Null, low, moderate, high, severe
(§9) 7. Vasculitis—Score 1-5: Null, low, moderate, high, severe
(§10) Specific Pathologist Definitions: • Necrosis is defined by the presence of nuclear debris/pyknosis within the glomerular tuft indicative of “necrosis.” In many samples, this is a very mild, rare finding within only a very few segments of the glomerular tuft. Also consider effacement of the glomerular tuft by PAS positive, Trichrome negative material necrosis. • Glomerular sclerosis is defined by increased fibroplasia or fibrosis within the glomerular tuft or capsule. […] Most of the vascular changes are mild and could be considered “arteriosclerosis” characterized by proliferation of the smooth muscle cells, and hyalinization of the extracellular matrix. This change may reflect hypertension secondary to glomerular pathology. In very few animals is there overt “vasculitis.” Most inflammatory changes are within the walls of the blood vessels, with little to no damage to the endothelium, and no overt hemorrhage/fibrin leakage. Many also have perivascular rims of fibroblasts.

NZM mice [3] = assay: Body weight progression, NZM mice (Example 2)
NZM mice [4] = assay: Antinuclear antibody (ANA) ELISA (anti-chromatin, anti-Smith Ag, anti-dsDNA), serum of NZM mice (Example 2)
NZM mice [5] = assay: Collagen type-I cross-linker (CTx) bone resorption biomarker ELISA, serum of NZM mice
Method: Assay is performed as instructed by the manufacturer. Briefly, biotinylated ratlaps antigen is first added in each well of a 96-well ELISA plate. This plate is covered and incubated for 30 minutes at RT. Plate is washed five times with washing solution and incubated with standards or unknown samples in appropriate wells followed by primary Ab. Incubate overnight for 18 hours at 4° C. followed by washing with buffer. Secondary incubation includes a peroxidase conjugated goat anti-rabbit IgG added to each well and incubation at RT for 1 hour. Incubation with chromogenic substrate solution for 15 minutes at RT in the dark develops the plate for analysis. Stopping solution halts the reaction, absorbance is measured within 2 hours at 450 nm.

NZM mice [6] = assay: Renal histopathology scoring (kidney IC-GN), NZM mice (Example 2)
Method: as §1, with “neutral” for “neutral 10%”, “39” for “17”
as §2, §3, §4, §5, §6, §7, §8, §9, §10

[7] = COMPOUND A once and twice weekly

## CC(C)C[C@H](NC(=O)[C@@H](NC(=O)c1cccc(-c2ccccc2)n1)[C@@H](C)O)B(O)O [COMPOUND A, [(1R)-1-[[(2S,3R)-3-hydroxy-2-[6-phenyl-pyridine-2-carbonyl)amino]-1-oxobutyl]amino]-3-methylbutylboronic acid]
MRL/lpr mice [1]; 3 mg/kg iv twice weekly
  splenomegaly decrease vs vehicle at the end of the study: 74%
MRL/lpr mice [1]; G1: 3 mg/kg iv, 1× wk
  EOS spleen mass, percent change vs vehicle: −67%
MRL/lpr mice [1]; G2: 3 mg/kg iv, 2× wk
  EOS spleen mass, percent change vs vehicle: −74%
MRL/lpr mice [1]; G3: 10 mg/kg po, 2× wk
  EOS spleen mass, percent change vs vehicle: −56%
MRL/lpr mice [2]; COMPOUND A treatment groups
  decrease in average renal pathology score vs vehicle: 1.55-1.86 fold
MRL/lpr mice [2]; G1: 3 mg/kg iv, 1× wk
  EOS glomerular cellularity, percent change vs vehicle: −41%
  EOS glomerular necrosis, percent change vs vehicle: −38%
  EOS glomerulosclerosis, percent change vs vehicle: −39%
  EOS interstitial infiltration, percent change vs vehicle: −42%
  EOS vasculitis, percent change vs vehicle: −33%
  Kidney EOS interstitial fibrosis, percent change vs vehicle: −31%
  Kidney EOS tubular atrophy, percent change vs vehicle: −35%
MRL/lpr mice [2]; G2: 3 mg/kg iv, 2× wk
  EOS glomerular cellularity, percent change vs vehicle: −36%
  EOS glomerular necrosis, percent change vs vehicle: −47%
  EOS glomerulosclerosis, percent change vs vehicle: −45%
  EOS interstitial infiltration, percent change vs vehicle: −61%
  EOS vasculitis, percent change vs vehicle: −45%
  Kidney EOS interstitial fibrosis, percent change vs vehicle: −42%
  Kidney EOS tubular atrophy, percent change vs vehicle: −46%
MRL/lpr mice [2]; G3: 10 mg/kg po, 2× wk
  EOS glomerular cellularity, percent change vs vehicle: −33%
  EOS glomerular necrosis, percent change vs vehicle: −31%
  EOS glomerulosclerosis, percent change vs vehicle: −33%
  EOS interstitial infiltration, percent change vs vehicle: −50%
  EOS vasculitis, percent change vs vehicle: −43%
  Kidney EOS interstitial fibrosis, percent change vs vehicle: −27%
  Kidney EOS tubular atrophy, percent change vs vehicle: −42%
MRL/lpr mice [2]; all 3 COMPOUND A treatment groups
  renal interstitial infiltration reduction vs vehicle: up to 61%
NZM mice [3]; G1 3 mg/kg ip, 1× wk
  Body mass AUC, percent change vs vehicle: +9%
NZM mice [3]; G1: 3 mg/kg ip once per week
  body weight increase compared to vehicle: 9%
NZM mice [3]; G2 3 mg/kg ip, 2× wk
  Body mass AUC, percent change vs vehicle: +10%
NZM mice [3]; G2: 3 mg/kg ip twice weekly
  body weight increase compared to vehicle: 10%
NZM mice [4]; G1 3 mg/kg ip, 1× wk
  ANA Smith Ag AUC, percent change vs vehicle: −88%
  ANA chromatin AUC, percent change vs vehicle: −63%
  ANA dsDNA AUC, percent change vs vehicle: −21%
NZM mice [4]; G2 3 mg/kg ip, 2× wk
  ANA Smith Ag AUC, percent change vs vehicle: 8%
  ANA chromatin AUC, percent change vs vehicle: −79%
  ANA dsDNA AUC, percent change vs vehicle: −68%
NZM mice [4]; once weekly COMPOUND A
  serum anti-dsDNA Ab decrease vs vehicle: 21%
NZM mice [4]; once weekly COMPOUND A (3 mg/kg ip)
  serum anti-Smith Ag Ab decrease vs vehicle: 88%
NZM mice [4]; twice weekly (3 mg/kg ip)
  serum anti-chromatin Ab decrease vs vehicle: 79%
NZM mice [4]; twice weekly COMPOUND A
  serum anti-dsDNA Ab decrease vs vehicle: 68%
NZM mice [4]; weekly (3 mg/kg ip)
  serum anti-chromatin Ab decrease vs vehicle: 63%
NZM mice [5]; G1 3 mg/kg 1× wk ip
  p, serum concentration of collagen type I cross-linker vs G8 Dex 1.5 mg/kg 3× wk ip: P < 0.01
NZM mice [5]; G1 3 mg/kg ip, 1× wk
  Serum CTx linker AUC, percent change vs vehicle: −41%
NZM mice [5]; G2 3 mg/kg 2× wk ip
  p, serum concentration of collagen type I cross-linker vs G8 Dex 1.5 mg/kg 3× wk ip: P < 0.01
NZM mice [5]; G2 3 mg/kg ip, 2× wk
  Serum CTx linker AUC, percent change vs vehicle: −40%
NZM mice [5]; treatment groups
  serum CTx levels compared to vehicle: no change in CTx levels
NZM mice [6]; 3 mg/kg 1× wk
  p, glomerular cellularity (GC) vs G3 Bortezomib 0.3 mg/kg 1× wk: p < 0.01
  p, glomerular cellularity (GC) vs G6 DEX 1.5 mg/kg 1× wk: p < 0.01
  p, glomerular cellularity (GC) vs G7 Vehicle: p < 0.001
  p, glomerular necrosis (GN) vs G3 Bortezomib 0.3 mg/kg 1× wk: p < 0.05
  p, glomerular necrosis (GN) vs G6 DEX 1.5 mg/kg 1× wk: p < 0.01
  p, glomerulosclerosis (GS) vs G3 Bortezomib 0.3 mg/kg 1× wk: p < 0.001
  p, glomerulosclerosis (GS) vs G6 DEX 1.5 mg/kg 1× wk: p < 0.001
  p, glomerulosclerosis (GS) vs G7 Vehicle: p < 0.01
  p, interstitial fibrosis (IF) vs G3 Bortezomib 0.3 mg/kg 1× wk: p < 0.01
  p, interstitial fibrosis (IF) vs G6 DEX 1.5 mg/kg 1× wk: p < 0.001
  p, interstitial fibrosis (IF) vs G7 Vehicle: p < 0.01
  p, interstitial infiltration (II) vs G6 DEX 1.5 mg/kg 1× wk: p < 0.01
  p, interstitial infiltration (II) vs G7 Vehicle: p < 0.05
  p, tubular atrophy (TA) vs G3 Bortezomib 0.3 mg/kg 1× wk: p < 0.001
  p, tubular atrophy (TA) vs G6 DEX 1.5 mg/kg 1× wk: p < 0.001
  p, tubular atrophy (TA) vs G7 Vehicle: p < 0.001
  p, vasculitis (VA) vs G6 DEX 1.5 mg/kg 1× wk: p < 0.01
  p, vasculitis (VA) vs G7 Vehicle: p < 0.01
NZM mice [6]; 3 mg/kg 2× wk
  p, glomerular cellularity (GC) vs G3 Bortezomib 0.3 mg/kg 1× wk: p < 0.01
  p, glomerular cellularity (GC) vs G6 DEX 1.5 mg/kg 1× wk: p < 0.01
  p, glomerular cellularity (GC) vs G7 Vehicle: p < 0.001
  p, glomerular necrosis (GN) vs G3 Bortezomib 0.3 mg/kg 1× wk: p < 0.05
  p, glomerular necrosis (GN) vs G6 DEX 1.5 mg/kg 1× wk: p < 0.01
  p, glomerulosclerosis (GS) vs G3 Bortezomib 0.3 mg/kg 1× wk: p < 0.001
  p, glomerulosclerosis (GS) vs G6 DEX 1.5 mg/kg 1× wk: p < 0.001
  p, glomerulosclerosis (GS) vs G7 Vehicle: p < 0.01
  p, interstitial fibrosis (IF) vs G3 Bortezomib 0.3 mg/kg 1× wk: p < 0.01
  p, interstitial fibrosis (IF) vs G6 DEX 1.5 mg/kg 1× wk: p < 0.001
  p, interstitial fibrosis (IF) vs G7 Vehicle: p < 0.01
  p, interstitial infiltration (II) vs G6 DEX 1.5 mg/kg 1× wk: p < 0.01
  p, interstitial infiltration (II) vs G7 Vehicle: p < 0.05
  p, tubular atrophy (TA) vs G3 Bortezomib 0.3 mg/kg 1× wk: p < 0.01
  p, tubular atrophy (TA) vs G6 DEX 1.5 mg/kg 1× wk: p < 0.001
  p, tubular atrophy (TA) vs G7 Vehicle: p < 0.001
  p, vasculitis (VA) vs G7 Vehicle: p < 0.05
NZM mice [6]; [7]
  glomerular cellularity reduction vs vehicle: ~50%
  glomerulosclerosis reduction vs vehicle: ~53%
  interstitial fibrosis reduction vs vehicle: ~55%
  interstitial infiltration reduction vs vehicle: 43-46%
  tubular atrophy reduction vs vehicle: 55-59%
  vasculitis reduction vs vehicle: 51-55%
NZM mice [6]; G1 3 mg/kg ip, 1× wk
  Kidney glomerular cellularity, percent change vs vehicle: −48%
  Kidney glomerular necrosis, percent change vs vehicle: −29%
  Kidney glomerulosclerosis, percent change vs vehicle: −54%
  Kidney interstitial fibrosis, percent change vs vehicle: −56%
  Kidney interstitial infiltration, percent change vs vehicle: −46%
  Kidney tubular atrophy, percent change vs vehicle: −59%
  Kidney vasculitis, percent change vs vehicle: −55%
NZM mice [6]; G2 3 mg/kg ip, 2× wk
  Kidney glomerular cellularity, percent change vs vehicle: −50%
  Kidney glomerular necrosis, percent change vs vehicle: −29%
  Kidney glomerulosclerosis, percent change vs vehicle: −53%
  Kidney interstitial fibrosis, percent change vs vehicle: −55%
  Kidney interstitial infiltration, percent change vs vehicle: −43%
  Kidney tubular atrophy, percent change vs vehicle: −55%
  Kidney vasculitis, percent change vs vehicle: −51%
NZM mice [6]; mouse, in vivo
  decrease in renal histopathology score over several parameters vs vehicle: 45-55%
